The results in this text go back to patent US9790218B2, “Small molecule activators of calcium-activated chloride channels and methods of use” (The Regents of the University of California, priority 2011, dated 2017).

The test system of assay [1] is cytoplasmic Ca^2+ in FRT cells. The assay can be described thus: Cytoplasmic calcium measured by Fluo-4 fluorescence. The class given is cell-based. The note with it: 10 μM activator. The procedure:
(§1) FIG. 2A-E. Characterization of TMEM16A activators. FIG. 2A. Cytoplasmic calcium measured by Fluo-4 fluorescence. 100 μM ATP (gray line) or 10 μM of indicated TMEM16A activators were added at the arrow. FIG. 2B. Apical membrane current measured in TMEM16A-expressing FRT cells in the presence of a transepithelial chloride gradient and after basolateral membrane permeabilization. […] T16Ainh-A01 (10 μM) added where indicated. […] (right) Concentration-activation data summary (mean±S.E., n=4-6). FIG. 2C. Synergistic effect of Eact and Fact. (left and center) Representative current traces showing synergy. (right) Data summary of low doses of TMEM16A activation (mean±S.E., n=5, * P<0.05). FIG. 2D. Apical membrane current measured in FRT cells transfected with mouse TMEM16A or TMEM16B. FIG. 2E. Effect of Eact and Fact on CFTR and ENaC. (left) FRT cells expressing wild type CFTR and YFP indicator were pretreated for 5 min with 10 μM Eact and Fact. Forskolin (10 μM) added as indicated. (right) HBE cells were pre-treated for 5 min with 10 μM Eact and Fact, with amiloride (10 μM) added as indicated.
FRT cells in 96-well black-walled microplates were loaded with Fluo-4 NW per the manufacturer's protocol (Invitrogen, Carlsbad, Calif.). Fluo-4 fluorescence was measured with a FLUOstar Optima fluorescence plate reader equipped with syringe pumps and custom Fluo-4 excitation/emission filters (485/538 nm).

A further assay concerns the target T1, ENaC (Homo sapiens, UniProt P37088+P51168+P51170).
T1 construct: endogenous in cells; host or cells: primary human bronchial epithelial (HBE) cells at air-liquid interface
T1 sequence (P37088 1-669): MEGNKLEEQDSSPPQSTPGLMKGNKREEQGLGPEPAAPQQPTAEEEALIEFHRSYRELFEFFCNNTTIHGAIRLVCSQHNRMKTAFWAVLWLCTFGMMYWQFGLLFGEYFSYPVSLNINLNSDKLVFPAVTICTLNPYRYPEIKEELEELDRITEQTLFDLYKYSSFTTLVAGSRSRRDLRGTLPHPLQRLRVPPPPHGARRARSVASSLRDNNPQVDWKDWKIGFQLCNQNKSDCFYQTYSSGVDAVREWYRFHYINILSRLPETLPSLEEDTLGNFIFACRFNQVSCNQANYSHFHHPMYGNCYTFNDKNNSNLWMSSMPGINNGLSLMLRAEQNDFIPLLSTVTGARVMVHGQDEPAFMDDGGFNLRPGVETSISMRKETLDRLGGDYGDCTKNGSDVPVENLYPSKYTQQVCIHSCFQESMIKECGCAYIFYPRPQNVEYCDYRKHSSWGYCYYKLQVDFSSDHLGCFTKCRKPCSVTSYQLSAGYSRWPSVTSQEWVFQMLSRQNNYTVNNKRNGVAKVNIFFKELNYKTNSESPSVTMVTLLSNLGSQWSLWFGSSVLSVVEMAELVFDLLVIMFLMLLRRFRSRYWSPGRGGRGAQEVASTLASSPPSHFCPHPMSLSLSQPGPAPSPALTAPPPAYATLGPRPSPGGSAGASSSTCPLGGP
T1 sequence (P51168 1-640): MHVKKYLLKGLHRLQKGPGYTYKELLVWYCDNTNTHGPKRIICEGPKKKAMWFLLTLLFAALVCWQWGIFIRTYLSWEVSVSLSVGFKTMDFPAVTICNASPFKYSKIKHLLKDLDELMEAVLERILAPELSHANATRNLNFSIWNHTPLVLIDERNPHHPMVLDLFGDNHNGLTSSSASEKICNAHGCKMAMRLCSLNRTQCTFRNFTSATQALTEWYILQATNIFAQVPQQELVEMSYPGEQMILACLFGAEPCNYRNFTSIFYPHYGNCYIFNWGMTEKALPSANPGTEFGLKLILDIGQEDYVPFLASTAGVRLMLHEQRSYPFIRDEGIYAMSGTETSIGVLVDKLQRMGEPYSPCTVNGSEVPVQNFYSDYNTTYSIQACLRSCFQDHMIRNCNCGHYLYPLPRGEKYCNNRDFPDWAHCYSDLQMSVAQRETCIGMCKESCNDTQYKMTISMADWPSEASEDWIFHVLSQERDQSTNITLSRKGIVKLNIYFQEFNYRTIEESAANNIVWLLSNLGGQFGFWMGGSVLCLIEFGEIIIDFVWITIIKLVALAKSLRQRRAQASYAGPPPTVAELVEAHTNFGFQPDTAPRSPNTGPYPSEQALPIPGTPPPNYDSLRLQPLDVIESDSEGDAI
T1 sequence (P51170 1-649): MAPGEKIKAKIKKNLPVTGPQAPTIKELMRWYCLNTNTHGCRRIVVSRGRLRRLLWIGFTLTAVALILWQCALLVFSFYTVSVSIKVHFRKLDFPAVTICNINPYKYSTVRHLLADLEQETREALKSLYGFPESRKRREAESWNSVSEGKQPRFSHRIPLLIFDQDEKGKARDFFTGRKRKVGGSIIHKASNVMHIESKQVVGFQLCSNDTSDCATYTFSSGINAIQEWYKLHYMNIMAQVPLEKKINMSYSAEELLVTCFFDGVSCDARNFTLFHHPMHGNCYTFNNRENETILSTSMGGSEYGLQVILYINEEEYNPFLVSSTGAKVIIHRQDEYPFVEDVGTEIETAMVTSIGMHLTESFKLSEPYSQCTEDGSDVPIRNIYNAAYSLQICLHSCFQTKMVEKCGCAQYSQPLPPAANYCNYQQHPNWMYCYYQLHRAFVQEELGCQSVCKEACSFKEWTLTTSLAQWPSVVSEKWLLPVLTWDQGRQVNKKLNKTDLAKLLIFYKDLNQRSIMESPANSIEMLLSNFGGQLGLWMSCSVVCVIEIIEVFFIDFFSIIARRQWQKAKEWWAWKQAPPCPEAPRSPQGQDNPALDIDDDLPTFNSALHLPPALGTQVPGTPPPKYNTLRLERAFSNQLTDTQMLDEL
The assay can be described thus: ENaC Na^+ conductance in HBE cells. The class given is cell-based. The note with it: 10 μM, 5 min pretreatment; amiloride 10 μM. The procedure:
as §1, with “(right) HBE cells were pre-treated for 5 min with 10 μM Eact and Fact, with amiloride (10 μM) added as indicated.” left out
Snapwell inserts containing TMEM16A-expressing FRT, HBE, CF HBE or HTG cells were mounted in Ussing chambers (Physiologic Instruments, San Diego, Calif.). […] Apical membrane current (for FRT cells) and short-circuit current were measured using an EVC4000 Multi-Channel V/I Clamp (World Precision Instruments, Sarasota, Fla.) and recorded using PowerLab/8sp (AD Instruments, Castle Hill, Australia).

Structures are written as SMILES.

On to `O=C(Nc1ccc(Br)cc1)c1cccc(-n2cnnn2)c1` [Fact, N-(4-bromophenyl)-3-(1H-tetrazol-1-yl)benzamide], for which the “effect on cytoplasmic Ca^2+” value in assay [1] is recorded as “did not elevate Ca^2+”. Also, the “effect on ENaC Na^+ conductance” value on ENaC is “Neither Eact nor Fact affected”.
